What was measured:
in vitro = format: cell-based; settings: human
Procedure: (§1) Black 384-well clear-bottom microtiter plates (Corning, Amsterdam, The Netherlands) were filled via acoustic drop ejection using the echo liquid handler (Labcyte, Sunnyvale, California). 200 nL of compound stock solutions (100% DMSO) were transferred to the assay plates. 9 serial 4-fold dilutions of compound were made, creating per quadrant the same compound concentration. The assay was initiated by adding 10 μL of culture medium to each well (RPMI medium without phenol red, 10% FBS-heat inactivated, 0.04% gentamycin (50 mg/mL). All addition steps are done by using a multidrop dispenser (Thermo Scientific, Erembodegem, Belgium). Next, rgRSV224 virus (MOI=1) diluted in culture medium was added to the plates. rgRSV224 virus is an engineered virus that includes an additional GFP gene (Hallak LK, Spillmann D, Collins PL, Peeples ME. Glycosaminoglycan sulfation requirements for respiratory syncytial virus infection; Journal of virology (2000), 74(22), 10508-13) and was in-licensed from the NIH (Bethesda, MD, USA). Finally, 20 μL of a HeLa cell suspension (3,000 cells/well) were plated. Medium, virus- and mock-infected controls were included in each test. The wells contain 0.05% DMSO per volume. Cells were incubated at 37° C. in a 5% CO2 atmosphere. Three days post-virus exposure, viral replication was quantified by measuring GFP expression in the cells by an in house developed MSM laser microscope (Tibotec, Beerse, Belgium). The EC50 was defined as the 50% inhibitory concentration for GFP expression. In parallel, compounds were incubated for three days in a set of white 384-well microtiter plates (Corning) and the cytotoxicity of compounds in HeLa cells was determined by measuring the ATP content of the cells using the ATPlite kit (Perkin Elmer, Zaventem, Belgium) according to the manufacturer's instructions. The CC50 was defined as the 50% concentration for cytotoxicity.

rgRSV224 virus = assay: Antiviral activity: rgRSV224 (GFP) replication in HeLa cells; format: cell-based; settings: human respiratory syncytial virus, 72 h, read-out: RSV HELA EC50 (μM)
Procedure: as §1

Q: Which results are given for `C[C@@H]1c2ccccc2CCN1C(=O)c1cc(C2CC2)c2nc(-c3ccc(N4CC[C@H](C(N)=O)C4)cc3F)n(C)c2c1` [Compound 17, (3S)-1-(4-{4-Cyclopropyl-1-methyl-6-[(1R)-1-methyl-1,2,3,4-tetrahydroisoquinoline-2-carbonyl]-1H-1,3-benzodiazol-2-yl}-3-fluorophenyl)pyrrolidine-3-carboxamide]?
A: CC50 at 3 days (in vitro): 39.6 µM; EC50 (rgRSV224 virus): 0.17 µM

Q: Which results are given for `C[C@@H]1c2ccccc2CCN1C(=O)c1cc(C2CC2)c2nc(-c3ccc(NC(=O)N4CC[C@@H](O)C4)cc3F)oc2c1` [Compound 23, (R)-N-(4-(4-cyclopropyl-6-((R)-1-methyl-1,2,3,4-tetrahydroisoquinoline-2-carbonyl)benzo[d]oxazol-2-yl)-3-fluorophenyl)-3-hydroxypyrrolidine-1-carboxamide]?
A: CC50 at 3 days (in vitro): 47.8 µM; EC50 (rgRSV224 virus): 0.05 µM

Q: For `C[C@@H]1c2ccccc2CCN1C(=O)c1cc(C2CC2)c2nc(-c3ccc(NC(=O)N4CC[C@@H](O)C4)cc3F)sc2c1` [Compound 24, (R)-N-(4-(4-cyclopropyl-6-((R)-1-methyl-1,2,3,4-tetrahydroisoquinoline-2-carbonyl)benzo[d]thiazol-2-yl)-3-fluorophenyl)-3-hydroxypyrrolidine-1-carboxamide], which CC50 at 3 days (in vitro) is on record?
A: 54 µM

Q: And the EC50 (rgRSV224 virus)?
A: 0.17 µM

Q: What does the source list for `C[C@@H]1c2ccccc2CCN1C(=O)c1cc(-c2ccccc2)c2cn(-c3ccc(N4C[C@H](O)[C@@H](O)C4)cc3F)nc2c1` [Compound 25, (2-(4-((3S,4S)-3,4-dihydroxypyrrolidin-1-yl)-2-fluorophenyl)-4-phenyl-2H-indazol-6-yl)((R)-1-methyl-3,4-dihydroisoquinolin-2 (1H)-yl)methanone]?
A: CC50 at 3 days (in vitro): 19.4 µM; EC50 (rgRSV224 virus): 0.47 µM

Q: Which CC50 at 3 days (in vitro) does the source give for `C[C@@H]1c2ccccc2CCN1C(=O)c1cc(C2CC2)c2cc(-c3ccc(N4CC[C@@H](C(=O)O)C4)cc3F)n(C)c2c1` [Compound 10, (R)-1-(4-(4-cyclopropyl-1-methyl-6-((R)-1-methyl-1,2,3,4-tetrahydroisoquinoline-2-carbonyl)-1H-indol-2-yl)-3-fluorophenyl)pyrrolidine-3-carboxylic acid] here?
A: 21.1 µM

Q: And the EC50 (rgRSV224 virus)?
A: 2.64 µM

Q: With `C[C@@H]1c2ccccc2CCN1C(=O)c1cc(C2CC2)c2nc(-c3ccc(C4C[C@@H]4C(N)=O)cc3F)n(C)c2c1` (relative stereo) [Compound 15, Cis-2-(4-{4-cyclopropyl-1-methyl-6-[(1R)-1-methyl-1,2,3,4-tetrahydroisoquinoline-2-carbonyl]-1H-1,3-benzodiazol-2-yl}-3-fluorophenyl)cyclopropane-1-carboxamide] as the compound, how does the CC50 at 3 days (in vitro) read?
A: 50.4 µM

Q: What about the EC50 (rgRSV224 virus) of the same compound?
A: 0.69 µM

Q: With `C[C@@H]1c2ccccc2CCN1C(=O)c1cc(C2CC2)c2cc(-c3ccc(N4C[C@H](O)[C@@H](O)C4)cc3F)sc2n1` [Compound 4, (4-cyclopropyl-2-(4-((3 S,4S)-3,4-dihydroxypyrrolidin-1-yl)-2-fluorophenyl)thieno[2,3-b]pyridin-6-yl)((R)-1-methyl-3,4-dihydroisoquinolin-2(1H)-yl)methanone] as the compound, how does the CC50 at 3 days (in vitro) read?
A: 14.3 µM

Q: What about the EC50 (rgRSV224 virus) of the same compound?
A: 0.14 µM

Q: With `C[C@@H]1c2ccccc2CCN1C(=O)c1cc(C2CC2)c2c(n1)nc(-c1ccc(C3C[C@H]3C(=O)O)cc1F)n2C` (relative stereo) [Compound 13, (Trans)-2-(4-(7-cyclopropyl-1-methyl-5-((R)-1-methyl-1,2,3,4-tetrahydroisoquinoline-2-carbonyl)-1H-imidazo[4,5-b]pyridin-2-yl)-3-fluorophenyl)cyclopropane-1-carboxylic acid] as the compound, how does the CC50 at 3 days (in vitro) read?
A: > 100 µM

Q: And the EC50 (rgRSV224 virus)?
A: 22.4 µM

Q: Which results are given for `C[C@@H]1c2ccccc2CCN1C(=O)c1cc(C2CC2)c2nn(-c3ccc(N)cc3F)cc2c1` [Compound 19, 4-{7-Cyclopropyl-5-[(1R)-1-methyl-1,2,3,4-tetrahydroisoquinoline-2-carbonyl]-2H-indazol-2-yl}-3-fluoroaniline]?
A: CC50 at 3 days (in vitro): 55.2 µM; EC50 (rgRSV224 virus): 0.16 µM

Reference: US20240158390A1, “OTHER HETEROAROMATIC COMPOUNDS HAVING ACTIVITY AGAINST RSV” (Janssen Sciences Ireland Unlimited Company, priority 2019, published 2024)
